In ChEMBL document CHEMBL3525902, “In vitro metabolism of oxymetazoline: evidence for bioactivation to a reactive metabolite” (Drug Metab Dispos, 2011):

What was measured:
Cytochrome P450 2C19 [1] = target: T1, Cytochrome P450 2C19 (Homo sapiens, UniProt P33261); assay: Activity of human recombinant CYP2C19 assessed as (S)-2-amino-5-((R)-3-(5-tert-butyl-2-((4,5-dihydro-1H-imidazol-2-yl)methyl)-4-hydroxy-3-methylbenzylthio)-1-(carboxymethylamino)-1-oxopropan-2-ylamino)-5-oxopentanoic acid formation at 50 uM in presence of NADPH and glutathione by LC-MS/MS method; type: ADME; details: recombinant enzyme
T1 sequence (P33261 whole entry): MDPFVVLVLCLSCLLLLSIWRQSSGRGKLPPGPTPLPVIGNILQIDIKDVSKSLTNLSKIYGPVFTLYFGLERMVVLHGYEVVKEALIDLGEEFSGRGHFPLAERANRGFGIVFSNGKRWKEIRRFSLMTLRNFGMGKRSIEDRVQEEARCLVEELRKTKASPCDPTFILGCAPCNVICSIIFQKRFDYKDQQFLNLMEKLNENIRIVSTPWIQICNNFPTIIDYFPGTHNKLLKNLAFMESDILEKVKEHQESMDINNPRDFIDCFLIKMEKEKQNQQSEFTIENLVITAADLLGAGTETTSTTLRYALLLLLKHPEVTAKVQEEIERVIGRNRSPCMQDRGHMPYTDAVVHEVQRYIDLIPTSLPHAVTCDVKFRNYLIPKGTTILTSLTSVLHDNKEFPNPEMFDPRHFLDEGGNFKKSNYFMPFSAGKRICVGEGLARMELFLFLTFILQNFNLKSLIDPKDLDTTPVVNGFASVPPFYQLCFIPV

Cytochrome P450 2C8 = target: T2, Cytochrome P450 2C8 (Homo sapiens, UniProt P10632); assay: Activity of human recombinant CYP2C8 assessed as metabolite formation at 50 uM in presence of NADPH by LC-MS/MS method; type: ADME; details: recombinant enzyme
T2 sequence (P10632 whole entry): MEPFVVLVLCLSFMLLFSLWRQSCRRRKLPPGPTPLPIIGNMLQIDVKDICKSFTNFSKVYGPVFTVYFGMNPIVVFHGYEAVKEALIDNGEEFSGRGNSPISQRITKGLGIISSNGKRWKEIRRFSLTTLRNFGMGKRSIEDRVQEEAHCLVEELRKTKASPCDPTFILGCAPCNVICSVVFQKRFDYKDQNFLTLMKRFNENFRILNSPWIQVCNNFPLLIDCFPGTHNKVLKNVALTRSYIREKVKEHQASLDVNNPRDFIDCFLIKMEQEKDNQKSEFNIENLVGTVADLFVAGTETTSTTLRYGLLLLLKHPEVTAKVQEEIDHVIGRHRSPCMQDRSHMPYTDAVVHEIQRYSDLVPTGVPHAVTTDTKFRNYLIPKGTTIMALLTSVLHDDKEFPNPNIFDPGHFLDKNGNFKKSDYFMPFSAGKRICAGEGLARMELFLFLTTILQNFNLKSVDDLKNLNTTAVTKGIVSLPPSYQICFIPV

Cytochrome P450 2C9 = Cytochrome P450 2C9 (Homo sapiens, UniProt P11712); assay: Activity of human recombinant CYP2C9 assessed as metabolite formation at 50 uM in presence of NADPH by LC-MS/MS method; type: ADME; details: recombinant enzyme
Cytochrome P450 2C9, sequence (P11712 whole entry): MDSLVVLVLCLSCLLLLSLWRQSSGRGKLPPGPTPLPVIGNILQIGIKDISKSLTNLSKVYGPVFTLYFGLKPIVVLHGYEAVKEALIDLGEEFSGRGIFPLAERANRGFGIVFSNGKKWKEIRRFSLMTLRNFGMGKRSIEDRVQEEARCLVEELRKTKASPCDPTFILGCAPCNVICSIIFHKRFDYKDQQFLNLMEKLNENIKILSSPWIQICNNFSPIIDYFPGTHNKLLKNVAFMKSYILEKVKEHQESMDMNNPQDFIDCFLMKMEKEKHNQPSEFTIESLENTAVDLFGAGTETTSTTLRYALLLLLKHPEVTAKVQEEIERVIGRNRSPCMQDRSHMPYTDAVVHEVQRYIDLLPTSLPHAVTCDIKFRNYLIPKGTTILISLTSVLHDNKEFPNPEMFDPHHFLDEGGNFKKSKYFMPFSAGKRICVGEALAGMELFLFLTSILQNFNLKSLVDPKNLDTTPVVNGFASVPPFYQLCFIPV

Cytochrome P450 2C18 = target: T3, Cytochrome P450 2C18 (Homo sapiens, UniProt P33260); assay: Activity of human recombinant CYP2C18 assessed as metabolite formation at 50 uM in presence of NADPH by LC-MS/MS method; type: ADME; details: recombinant enzyme
T3 sequence (P33260 whole entry): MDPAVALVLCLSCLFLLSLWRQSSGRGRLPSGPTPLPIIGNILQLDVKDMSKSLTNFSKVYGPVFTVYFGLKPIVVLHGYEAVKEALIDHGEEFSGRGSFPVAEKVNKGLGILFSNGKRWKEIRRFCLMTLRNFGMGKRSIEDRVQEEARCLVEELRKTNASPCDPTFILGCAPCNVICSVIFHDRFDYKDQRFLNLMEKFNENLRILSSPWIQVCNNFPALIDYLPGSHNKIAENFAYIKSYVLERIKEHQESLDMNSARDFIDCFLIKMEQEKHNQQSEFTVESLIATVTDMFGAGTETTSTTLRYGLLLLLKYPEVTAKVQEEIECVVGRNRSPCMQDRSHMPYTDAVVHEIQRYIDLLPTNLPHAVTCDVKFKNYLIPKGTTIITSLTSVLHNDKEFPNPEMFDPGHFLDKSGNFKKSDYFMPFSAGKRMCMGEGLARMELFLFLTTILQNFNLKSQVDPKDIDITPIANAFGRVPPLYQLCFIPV

Cytochrome P450 2E1 = Cytochrome P450 2E1 (Homo sapiens, UniProt P05181); assay: Activity of human recombinant CYP2E1 assessed as metabolite formation at 50 uM in presence of NADPH by LC-MS/MS method; type: ADME; details: recombinant enzyme
Cytochrome P450 2E1, sequence (P05181 whole entry): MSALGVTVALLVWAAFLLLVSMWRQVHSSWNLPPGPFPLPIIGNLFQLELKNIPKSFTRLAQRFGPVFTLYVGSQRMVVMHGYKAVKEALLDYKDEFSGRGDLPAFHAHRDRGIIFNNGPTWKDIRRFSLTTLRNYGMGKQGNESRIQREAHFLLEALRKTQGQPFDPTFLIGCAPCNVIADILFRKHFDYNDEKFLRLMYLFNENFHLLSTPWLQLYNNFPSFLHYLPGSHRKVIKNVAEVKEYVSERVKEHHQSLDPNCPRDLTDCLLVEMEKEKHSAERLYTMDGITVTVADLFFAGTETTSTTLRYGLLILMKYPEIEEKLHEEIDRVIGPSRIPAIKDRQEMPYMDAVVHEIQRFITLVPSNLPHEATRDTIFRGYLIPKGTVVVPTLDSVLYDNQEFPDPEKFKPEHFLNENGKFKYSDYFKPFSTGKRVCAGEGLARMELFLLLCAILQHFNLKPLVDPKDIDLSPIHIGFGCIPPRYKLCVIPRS

Cytochrome P450 2D6 = Cytochrome P450 2D6 (Homo sapiens, UniProt P10635); assay: Activity of human recombinant CYP2D6 assessed as metabolite formation at 50 uM in presence of NADPH by LC-MS/MS method; type: ADME; details: recombinant enzyme
Cytochrome P450 2D6, sequence (P10635 whole entry): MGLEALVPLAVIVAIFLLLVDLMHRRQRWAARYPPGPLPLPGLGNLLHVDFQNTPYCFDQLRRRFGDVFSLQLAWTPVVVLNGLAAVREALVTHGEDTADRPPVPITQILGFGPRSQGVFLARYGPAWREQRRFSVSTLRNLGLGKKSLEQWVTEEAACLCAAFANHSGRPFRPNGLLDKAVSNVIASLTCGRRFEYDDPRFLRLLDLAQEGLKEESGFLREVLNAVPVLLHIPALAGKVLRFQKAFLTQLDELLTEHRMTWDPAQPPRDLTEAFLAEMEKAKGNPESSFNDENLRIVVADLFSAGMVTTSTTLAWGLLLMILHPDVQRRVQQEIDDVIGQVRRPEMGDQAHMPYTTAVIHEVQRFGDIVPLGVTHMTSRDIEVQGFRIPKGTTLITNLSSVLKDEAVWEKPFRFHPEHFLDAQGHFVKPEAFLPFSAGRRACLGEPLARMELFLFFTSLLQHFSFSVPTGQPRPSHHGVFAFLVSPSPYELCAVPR

[2] = Drug metabolism in NADPH supplemented rat liver S9 fraction assessed as 3-((4,5-dihydro-1H-imidazol-2-yl)methyl)-6-(1-hydroxy-2-methylpropan-2-yl)-2,4-dimethylphenol formation at 50 uM in presence of glutathione by LC-MS/MS method; type: ADME, subcellular; details: s9, 50 µM
[3] = Drug metabolism in NADPH supplemented rabbit liver S9 fraction assessed as 3-((1H-imidazol-2-yl)methyl)-6-(1-hydroxy-2-methylpropan-2-yl)-2,4-dimethylphenol formation at 50 uM in presence of glutathione by LC-MS/MS method; type: ADME, subcellular, Oryctolagus cuniculus; details: s9, 50 µM
[4] = Drug metabolism in NADPH supplemented rabbit liver microsomes fraction assessed as 3-((4,5-dihydro-1H-imidazol-2-yl)methyl)-6-(1-hydroxy-2-methylpropan-2-yl)-2,4-dimethylphenol formation at 50 uM after 1 hr by LC-MS/MS method; type: ADME, Oryctolagus cuniculus
[5] = Drug metabolism in NADPH supplemented rabbit liver microsomes fraction assessed as 3-((1H-imidazol-2-yl)methyl)-6-tert-butyl-2,4-dimethylphenol formation at 50 uM after 1 hr by LC-MS/MS method; type: ADME, Oryctolagus cuniculus
[6] = Drug metabolism in NADPH supplemented rabbit liver microsomes fraction assessed as 3-((1H-imidazol-2-yl)methyl)-6-(1-hydroxy-2-methylpropan-2-yl)-2,4-dimethylphenol formation at 50 uM after 1 hr by LC-MS/MS method; type: ADME, Oryctolagus cuniculus
Liver microsome [7] = assay: Drug metabolism in NADPH supplemented rat liver microsomes fraction assessed as 3-((1H-imidazol-2-yl)methyl)-6-tert-butyl-2,4-dimethylphenol formation at 50 uM after 1 hr by LC-MS/MS method; type: ADME
Liver microsome [8] = assay: Drug metabolism in NADPH supplemented rat liver microsomes fraction assessed as 3-((1H-imidazol-2-yl)methyl)-6-(1-hydroxy-2-methylpropan-2-yl)-2,4-dimethylphenol formation at 50 uM after 1 hr by LC-MS/MS method; type: ADME
Liver microsome [9] = assay: Drug metabolism in NADPH supplemented human liver microsomes fraction assessed as 3-((4,5-dihydro-1H-imidazol-2-yl)methyl)-6-(1-hydroxy-2-methylpropan-2-yl)-2,4-dimethylphenol formation at 50 uM after 1 hr by LC-MS/MS method; type: ADME
Liver microsome [10] = assay: Drug metabolism in NADPH supplemented human liver microsomes fraction assessed as 3-((1H-imidazol-2-yl)methyl)-6-(1-hydroxy-2-methylpropan-2-yl)-2,4-dimethylphenol formation at 50 uM after 1 hr by LC-MS/MS method; type: ADME
[11] = Drug metabolism in NADPH supplemented human liver S9 fraction assessed as 3-((4,5-dihydro-1H-imidazol-2-yl)methyl)-6-(1-hydroxy-2-methylpropan-2-yl)-2,4-dimethylphenol formation at 50 uM in presence of glutathione by LC-MS/MS method; type: ADME, subcellular; details: s9, 50 µM
[12] = Drug metabolism in NADPH supplemented human liver S9 fraction assessed as 3-((1H-imidazol-2-yl)methyl)-6-(1-hydroxy-2-methylpropan-2-yl)-2,4-dimethylphenol formation at 50 uM in presence of glutathione by LC-MS/MS method; type: ADME, subcellular; details: s9, 50 µM
Cytochrome P450 2C19 [13] = target: T1, Cytochrome P450 2C19; assay: Activity of human recombinant CYP2C19 assessed as 3-((4,5-dihydro-1H-imidazol-2-yl)methyl)-6-(1-hydroxy-2-methylpropan-2-yl)-2,4-dimethylphenol formation at 50 uM in presence of NADPH by LC-MS/MS method; type: ADME; details: recombinant enzyme

Drug metabolism (Cytochrome P450 2C19 [1]): metabolite_detected
Drug metabolism (Cytochrome P450 2C8): metabolite_not_detected
Drug metabolism (Cytochrome P450 2C9): metabolite_not_detected
Drug metabolism (Cytochrome P450 2C18): metabolite_not_detected
Drug metabolism (Cytochrome P450 2E1): metabolite_not_detected
Drug metabolism (Cytochrome P450 2D6): metabolite_not_detected
Drug metabolism [2]: metabolite_detected
Drug metabolism [3]: metabolite_detected
Drug metabolism [4]: metabolite_detected
Drug metabolism [5]: metabolite_detected
Drug metabolism [6]: metabolite_detected
Drug metabolism (Liver microsome [7]): metabolite_detected
Drug metabolism (Liver microsome [8]): metabolite_detected
Drug metabolism (Liver microsome [9]): metabolite_detected
Drug metabolism (Liver microsome [10]): metabolite_detected
Drug metabolism [11]: metabolite_detected
Drug metabolism [12]: metabolite_detected
Drug metabolism (Cytochrome P450 2C19 [13]): metabolite_detected
Structure (SMILES): Cc1cc(C(C)(C)C)c(O)c(C)c1CC1=NCCN1 [OXYMETAZOLINE]
